Results on 1 substance are retold here after patent EP2667887B1, “PHARMACEUTICAL COMPOSITION COMPRISING THE PEPTIDE GLU-ASP-GLY AND USE FOR TREATING HELICOBACTER PYLORI INDUCED GASTRODUODENAL DISEASES” («Garmonia», Ltd., priority 2011, dated 2012).

The nature of this series: Chronic toxicity study, 6 months. Particulars: guinea pigs. Type of series: in vivo, male guinea pigs. The source says:
General toxicity of peptide H-Glu-Asp-Gly-OH was studied in accordance with the requirements of "Manual for Experimental (Pre-Clinical) Study of New Pharmacological Substances" (2000): acute toxicity in case of a single administration of the preparation, as well as subacute and chronic toxicity in case of a long-term administration of the peptide.
Chronic toxicity was studied for 6 months basing on the duration of the recommended clinical administration of the preparation on 92 male guinea pigs with body weight 310-350 g. Experimental animals were treated with the peptide daily, once a day, intramuscularly for 6 months in the doses of 1 µg/kg, 0,1 mg/kg, 1 mg/kg in 0,5 ml of sterile 0,9% NaCl solution. Control animals received sterile 0,9% NaCl solution according to the same scheme and in the same volume. The following indices were identified in the peripheral blood of the animals using traditional methods: quantity of erythrocytes, hemoglobin, reticulocytes, thrombocytes, leukocytes, leukocyte formula, erythrocyte sedimentation rate (ESR), erythrocyte resistance. Further, total protein was identified in the blood serum by the Lowry method, as well as potassium and sodium using plasma spectrophotometry method. […]

“glutamyl-aspartyl-glycine [H-Glu-Asp-Gly-OH]”: the chronic toxicity result (intramuscularly daily for 6 months, 1 µg/kg, 0,1 mg/kg, 1 mg/kg, doses exceed the therapeutic one by 100-1000 times) is “no side effects”. Also, where the note is “long-term administration”, the “effect on the ESR, erythrocyte resistance and biochemical indices of the blood serum” value is listed as “No significant effect”.
